Measurements taken from patent US6160004A, “C-10 carbon-substituted artemisinin-like trioxane compounds having antimalarial, antiproliferative and antitumor activities” (priority 1998, dated 2000).
pIC50: −log10 of the molar value. Where two headings read alike, the source gives them in different places.

Experiments:
[1] = tested on: NCI-H322M; test: cells; conditions: Homo sapiens, 48 h, read-out: Log10 LC50 (converted)
[2] = tested on: SK-MEL-2; test: cells; assay type: cell-based; conditions: Homo sapiens, SK-MEL-2, 48 h, read-out: Log10 LC50 (converted)
[3] = tested on: MDA-MB231/ATCC; test: cells; assay type: cell-based; conditions: Homo sapiens, MDA-MB-231, breast cancer, 48 h
[4] = tested on: MDA-N; test: NCI 60 cell line panel screening assay (SRB), MDA-N; assay type: cell-based; conditions: Homo sapiens, breast cancer, 48 h
[5] = tested on: UACC-62; test: cells; assay type: cell-based; conditions: Homo sapiens, UACC-62, melanoma, 48 h
[6] = tested on: TK-10; test: cells; assay type: cell-based; conditions: Homo sapiens, TK-10, 48 h, read-out: Log10 LC50 (converted)
[7] = tested on: SF-268; test: cells; assay type: cell-based; conditions: Homo sapiens
[8] = tested on: SK-OV-3; test: cells; assay type: cell-based; conditions: Homo sapiens
[9] = tested on: HCT-116; test: cells; assay type: cell-based; conditions: Homo sapiens, HCT-116, 48 h; read-out: Log10 TGI (converted)
[10] = tested on: MOLT-4; test: cells; conditions: Homo sapiens
[11] = tested on: MALME-3M; test: cells; assay type: cell-based; conditions: Homo sapiens, MALME-3M, melanoma, 48 h
[12] = tested on: NCI-H226; test: cells; assay type: cell-based; conditions: Homo sapiens
[13] = tested on: T-47D; test: NCI 60 cell line panel screening assay (SRB), T-47D; conditions: Homo sapiens, T47D, 48 h, read-out: Log10 LC50 (converted)
[14] = tested on: MCF7/ADR-RES; test: cells; assay type: cell-based; conditions: Homo sapiens
[15] = tested on: SF-539; test: cells; assay type: cell-based; conditions: Homo sapiens, SF-539, 48 h, read-out: Log10 LC50 (converted)
[16] = tested on: SNB-19; test: cells; assay type: cell-based; conditions: Homo sapiens
[17] = tested on: SF-295; test: cells; assay type: cell-based; conditions: Homo sapiens
[18] = read-out: Log10 GI50 (converted)
[19] = read-out: Log10 LC50 (converted)

Question: What does the source list for `C[C@H]1[C@@H](F)O[C@@H]2O[C@@]3(C)CC[C@H]4[C@H](C)CC[C@@H]1[C@@]24OO3` [Compound VI, 10β-Fluoro-10-deoxoartemisinin]?
Answer: CC50 [1]: > 100 µM; CC50 [2]: > 100 µM; GI50 [3, 18]: 13.2 µM; CC50 [3, 19]: > 100 µM; CC50 [4, 19]: > 100 µM; IC (TGI) ([4]; read-out: Log10 TGI (converted)): 21.4 µM; GI50 [5, 18]: 2340 nM; IC (TGI) ([5]; read-out: Log10 TGI): > 100 µM; CC50 [6]: > 100 µM; CC50 ([7]; SF-268, 48 h, read-out: Log10 LC50 (converted)): > 100 µM; IC (TGI) ([7]; SF-268, CNS cancer, 48 h, read-out: Log10 TGI): > 100 µM; CC50 ([8]; SK-OV-3, 48 h, read-out: Log10 LC50 (converted)): > 100 µM; GI50 ([8]; SK-OV-3, ovarian cancer, 48 h, read-out: Log10 GI50 (converted)): 24 µM; IC (TGI) ([8]; SK-OV-3, ovarian cancer, 48 h, read-out: Log10 TGI (converted)): > 100 µM; IC (TGI) [9]: > 100 µM; CC50 ([10]; MOLT-4, 48 h, read-out: Log10 LC50 (converted)): > 100 µM; CC50 ([10]; MOLT-4, read-out: concentration for cytotoxicity (PG -50)): > 100 µM; pIC50 ([10]; MOLT-4, read-out: concentration for primary growth inhibition (PG +50)): ~7.00; GI50 [11, 18]: 2340 nM; IC (TGI) ([11]; read-out: Log10 TGI): > 100 µM; CC50 ([12]; NCI-H226, 48 h, read-out: Log10 LC50 (converted)): > 100 µM; IC (TGI) ([12]; NCI-H226, non-small cell lung cancer, 48 h, read-out: Log10 TGI): > 100 µM; CC50 [13]: > 100 µM; CC50 ([14]; MCF7, 48 h, read-out: Log10 LC50 (converted)): > 100 µM; IC (TGI) ([14]; MCF7/ADR-RES, breast cancer, 48 h, read-out: Log10 TGI): > 100 µM; CC50 [15]: > 100 µM; CC50 ([16]; SNB-19, 48 h, read-out: Log10 LC50 (converted)): > 100 µM; IC (TGI) ([16]; SNB-19, CNS cancer, 48 h, read-out: Log10 TGI): > 100 µM; CC50 ([17]; SF-295, 48 h, read-out: Log10 LC50 (converted)): > 100 µM; GI50 ([17]; SF-295, CNS cancer, 48 h, read-out: Log10 GI50 (converted)): 17 µM; IC (TGI) ([17]; SF-295, CNS cancer, 48 h, read-out: Log10 TGI): > 100 µM
